Key:
[1] = tested on: Human immunodeficiency virus 1; experiment: Antiviral activity against HIV-1 LAI infected in human MT2 cells reduction in virus-induced cytopathic effect measured after 7 days by MTT assay; format: functional, organism-based; settings: Human immunodeficiency virus 1, LAI, MT2, 168 h
[2] = molecular target: Human immunodeficiency virus type 1 protease (Human immunodeficiency virus 1, UniProt Q72874); experiment: Inhibition of HIV-1 protease using Abz-Thr-Ile-Nle-Phe-(p-NO2)-Gln-Arg-NH2 as substrate preincubated for 5 to 10 mins followed by substrate addition and measured after 1 hr by spectrofluorometric assay

Structure (SMILES) | EC50 [1] | Ki [2]
COc1ccc(S(=O)(=O)N(CC(C)C)C[C@@H](O)[C@H](Cc2ccccc2)NC(=O)O[C@@H]2CC[C@@H]3C[C@H]4CO[C@@H](C(C)C)[C@@]42O3)cc1 | > 1000 nM | 620 nM
COc1ccc(S(=O)(=O)N(CC(C)C)C[C@@H](O)[C@H](Cc2ccccc2)NC(=O)O[C@@H]2CC[C@@H]3C[C@H]4CO[C@@H](C)[C@@]42O3)cc1 | > 1000 nM | 20.6 nM
COc1ccc(S(=O)(=O)N(CC(C)C)C[C@@H](O)[C@H](Cc2ccccc2)NC(=O)O[C@@H]2CC[C@H]3C[C@@H]4CO[C@H](c5ccccc5)[C@]42O3)cc1 | > 1000 nM | 272 nM
COc1ccc(S(=O)(=O)N(CC(C)C)C[C@@H](O)[C@H](Cc2ccccc2)NC(=O)O[C@H]2CC[C@@H]3C[C@H]4CO[C@@H](C(C)C)[C@@]42O3)cc1 | – | 855 nM
COc1ccc(S(=O)(=O)N(CC(C)C)C[C@@H](O)[C@H](Cc2ccccc2)NC(=O)O[C@@H]2CC[C@@H]3C[C@H]4CO[C@@H](c5ccccc5)[C@@]42O3)cc1 | > 1000 nM | 1300 nM
COc1ccc(S(=O)(=O)N(CC(C)C)C[C@@H](O)[C@H](Cc2ccccc2)NC(=O)O[C@H]2CC[C@H]3C[C@@H]4CO[C@H](c5ccccc5)[C@]42O3)cc1 | > 1000 nM | 424 nM
COc1ccc(S(=O)(=O)N(CC(C)C)C[C@@H](O)[C@H](Cc2ccccc2)NC(=O)O[C@H]2CC[C@@H]3C[C@H]4CO[C@@H](c5ccccc5)[C@@]42O3)cc1 | > 1000 nM | 43 nM
COc1ccc(S(=O)(=O)N(CC(C)C)C[C@@H](O)[C@H](Cc2ccccc2)NC(=O)O[C@H]2CC[C@@H]3C[C@H]4CO[C@@H](C)[C@@]42O3)cc1 | 240 nM | 1.65 nM

— ChEMBL document CHEMBL6109060, “Potent HIV‑1 protease inhibitors containing oxabicyclo octanol-derived P2-ligands: Design, synthesis, and X‑ray structural studies of inhibitor-HIV-1 protease complexes” (Bioorg Med Chem Lett, 2025)
